Like-named read-outs stand apart in the source and are kept apart here.
Columns and labels:
[1] = test system: Hh signaling (Gli1 mRNA) in SuFu−/− C3H10T1/2 cells; assay: Gli1 down-regulation in SuFu−/− C3H10T1/2 cells; format: cell-based, mouse; conditions: 24 h
[2] = test system: primary Ptch-CKO MB cells; assay: Anti-proliferation (MTS) in primary Ptch-CKO MB cells; format: cell-based; conditions: Mus musculus, 48 h incubation, mean ± SEM
Experimental: Ptch-CKO MB cells, derived from a conditional Patched knockout mouse, lack Ptch-like ASZ001 cells. Consequently, the inhibitory effect of the compound on Ptch-CKO MB cells directly reflects its suppression of the canonical Hh signaling pathway. Cell viability was assessed by MTS proliferation assay kit (Promega, Madison, WI, USA) according to the manufacturer’s protocol. Culture conditions and experimental protocols to determine GI50 values in the primary murine Ptch-CKO MB cells were as previously described.

ASZ001 cells = assay: Anti-proliferation (MTS) in ASZ001 cells; format: cell-based; conditions: Mus musculus, 48 h incubation, mean ± SEM
[3] = test system: Hh signaling (Gli1 mRNA) in VDR−/− C3H10T1/2 cells; assay: Gli1 down-regulation in VDR−/− C3H10T1/2 cells; format: cell-based, mouse; conditions: 24 h
Smo protein = target: T1, Smo protein (Homo sapiens, UniProt Q99835); assay: Surface plasmon resonance (SPR) binding to Smo; conditions: 2.5, 5, 10 μM in PBS, 4 °C
T1 construct: purchased ACRO Biosystems SMO-H52P3
Experimental: Surface plasmon resonance (SPR) was used to evaluate the binding capacity of the compounds 3j and 4i to Smo. […] To investigate the binding sites of the analogues on Smo, the ability of 3j and 4i to displace BODIPY-Cyc from HEK293T cells overexpressing full-length human Smo was evaluated. […] Smo contains two small molecule binding sites, one located in the extracellular cysteine-rich domain (CRD) and the other in the 7-transmembrane helix (7-TM) region. […] Endogenous oxidized sterols can regulate Smo activity by binding CRD [27]. These analogues, as mimetics of steroid hormones, may interact with Smo by binding to CRD.
SPR analysis was conducted as described in papers. The analyses of interactions between Smo protein (ACRO Biosystems, SMO-H52P3, Newark, DE, USA) and compounds at different concentrations (2.5, 5, 10 μM) was performed in PBS and a flow rate of 2 μL/s at 4 °C. The sensor chip surface was regenerated by injection of 0.5% SDS: Glycine-HCl (pH = 2.0) = 1:1 solution.

[4] = test system: VDR signaling (Cyp24A1 mRNA) in C3H10T1/2 cells; assay: Cyp24A1 mRNA up-regulation (qPCR) in C3H10T1/2 cells; format: cell-based, mouse; conditions: Mus musculus, C3H 10T1/2, 5 μM with OHCs 5 μM, 24 h, relative to DMSO (set to 1.0)
Experimental: (§1) The VD3 analogues were initially assessed for their ability to inhibit the Hh signaling pathway by evaluating the effects on endogenous Gli1 mRNA levels at a single concentration (5 μM) co-administration of oxysterols (OHCs; 20(S)-hydroxycholesterol, 22(S)-hydroxycholesterol at 5 μM each) in C3H10T1/2 cells, an Hh-dependent mouse embryonic fibroblast (MEF) cell line. […] VD3 derivatives may retain some VDR agonistic activity, thereby compromising the selectivity of these compounds as Hh inhibitors. The selectivity profile of the analogues for Hh inhibition, compared to typical VDR activation, was assessed by measuring the ability to up-regulate Cyp24a1 mRNA levels in the same cellular system and by evaluating their binding to VDR using a fluorescence polarization-based competition assay (Table 1).
(§2) Mouse embryonic fibroblast cell line (C3H10T1/2, wild-type, VDR^−/−, SuFu^−/−), mouse keratinocyte cell line (ASZ001), and human embryonic kidney cell line (HEK293T) were purchased from China Center for Type Culture Collection (CCTCC; Wuhan, Hubei, China) and cultured under standard protocols. […] Therefore, they can be used to assess the inhibitory strength of the Hh signaling and the selectivity of the VDR signaling. VDR^−/− and SuFu^−/− C3H10T1/2 cells were used to study compounds selectivity for Hh and VDR signaling. If compounds regulate Hh signaling independently of VDR, their ability to down-regulate Gli1 mRNA expression should be abolished in SuFu^−/− C3H10T1/2 cells. […] The loss of Ptch in ASZ001 cells […], so down-regulating Gli1 reflects direct Smo inhibition by the compound. Comparing results from ASZ001 and C3H10T1/2 cells highlights the compound’s inhibition of the Hh signaling pathway.
(§3) RNA isolation in C3H10T1/2 cells was performed in 24-well plates (50,000 cells plated; TRIZOL Reagent); in ASZ001, cells were done in 35 mm dishes (300,000 cells plated; TRIZOL Reagent). cDNA synthesis was performed utilizing the SweScript All-in-One RT SuperMix Kit (Servicebio, Wuhan, China) per the manufacturer’s instructions on a BioRad S1000 Thermal Cycler (Hercules, CA, USA). qPCR (Hh signaling pathway and VDR) analysis of target genes was performed on Step OnePlus (ABI) using the Taqman Gene Expression Assays: mouse ActB (Mm00607939_s1), mouse GLI1 (Mm00494645_ml), mouse PTCH1(Mm00436026_m1), and mouse CYP24A1 (Mm00487244_ml). Relative gene expression levels were computed via the ΔΔCt method. ActinB mRNA expression levels of all samples were normalized to DMSO control ActinB mRNA levels (vehicle; set at 1.00). […] The mRNA expression levels from drug-treated samples were compared to OHCs levels (Gli1, PTCH) and DMSO control (Cyp24A1).

[5] = test system: VDR signaling (Cyp24A1 mRNA) in ASZ001 cells; assay: Cyp24A1 mRNA expression (qPCR) in ASZ001 cells; format: cell-based; conditions: Mus musculus, read-out: Cyp24A1 mRNA levels relative to DMSO
[6] = test system: Cyp24A1 mRNA in VDR−/− C3H10T1/2 cells; assay: Cyp24A1 up-regulation in VDR−/− C3H10T1/2 cells; format: cell-based, mouse; conditions: 24 h
full-length human Smo = target: T2, full-length human Smo (Homo sapiens, UniProt Q99835); assay: BODIPY-Cyc displacement (flow cytometry) in HEK293T cells overexpressing Smo; format: binding; conditions: up to 10 μM
T2 construct: HEK293T cells overexpressing full-length human Smo was evaluated; expressed in transfected cells; host or cells: HEK293T

[7] = test system: Hh signaling pathway (Ptch mRNA) in C3H10T1/2 cells; assay: Ptch mRNA down-regulation (qPCR) in C3H10T1/2 cells; format: cell-based; conditions: Mus musculus
recombinant VDR = target: T3, recombinant VDR (Homo sapiens, UniProt P11473); assay: VDR binding, fluorescence polarization-based competition assay (PolarScreen VDR Competitor Assay Red); conditions: compounds evaluated at 100 μM
T3 construct: purchased Thermo Fisher Scientific
T3 sequence (P11473 1-427): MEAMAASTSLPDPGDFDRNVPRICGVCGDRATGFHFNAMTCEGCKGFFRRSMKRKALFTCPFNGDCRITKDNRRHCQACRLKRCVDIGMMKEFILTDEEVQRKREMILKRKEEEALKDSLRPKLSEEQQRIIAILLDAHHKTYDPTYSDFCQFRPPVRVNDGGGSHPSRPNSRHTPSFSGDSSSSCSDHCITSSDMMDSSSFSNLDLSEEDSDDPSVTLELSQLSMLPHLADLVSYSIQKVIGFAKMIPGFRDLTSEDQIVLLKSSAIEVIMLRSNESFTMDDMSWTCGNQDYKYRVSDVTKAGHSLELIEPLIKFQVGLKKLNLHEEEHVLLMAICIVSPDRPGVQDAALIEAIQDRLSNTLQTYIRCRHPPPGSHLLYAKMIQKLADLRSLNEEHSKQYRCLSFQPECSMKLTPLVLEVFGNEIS
Experimental: as §1
VDR binding assay was performed using a PolarScreen VDR Competitor Assay Red kit (Thermo Fisher Scientific, Carlsbad, CA, USA) per the manufacturer’s instructions. Compounds were evaluated at 100 μM in 2.5% final DMSO in triplicate. Calcitriol is utilized as a positive control for VDR binding.

[8] = test system: Cyp24A1 mRNA in SuFu−/− C3H10T1/2 cells; assay: Cyp24A1 up-regulation in SuFu−/− C3H10T1/2 cells; format: cell-based, mouse; conditions: 24 h
[9] = test system: Hh signaling pathway (Gli1 mRNA) in C3H10T1/2 cells; assay: Gli1 mRNA down-regulation (qPCR) in OHC-stimulated C3H10T1/2 cells; format: cell-based, mouse; conditions: Mus musculus; for mrna remaining at 5 µM: C3H 10T1/2, 5 μM with OHCs 5 μM, 24 h, relative Gli1 mRNA levels compared to OHCs (set to 100%); for IC50: C3H 10T1/2, mean ± SEM
Experimental: as §1, §2, §3

Hh signaling pathway = assay: Anti-Hh activity in combination with vismodegib; format: cell-based; conditions: combined with vismodegib 100 nM
[10] = test system: Hh signaling pathway (Gli1 mRNA) in ASZ001 cells; assay: Gli1 mRNA down-regulation (qPCR) in ASZ001 cells; format: cell-based; conditions: Mus musculus
[11] = ASZ001 cells, 5 μM, 24 h, DMSO set to 1.0
[12] = C3H 10T1/2, C3H10T1/2 cells, mean ± SEM, read-out: Ptch IC50
[13] = ASZ001 cells, mean ± SEM, read-out: Gli1 IC50

T2 sequence (Q99835 28-787): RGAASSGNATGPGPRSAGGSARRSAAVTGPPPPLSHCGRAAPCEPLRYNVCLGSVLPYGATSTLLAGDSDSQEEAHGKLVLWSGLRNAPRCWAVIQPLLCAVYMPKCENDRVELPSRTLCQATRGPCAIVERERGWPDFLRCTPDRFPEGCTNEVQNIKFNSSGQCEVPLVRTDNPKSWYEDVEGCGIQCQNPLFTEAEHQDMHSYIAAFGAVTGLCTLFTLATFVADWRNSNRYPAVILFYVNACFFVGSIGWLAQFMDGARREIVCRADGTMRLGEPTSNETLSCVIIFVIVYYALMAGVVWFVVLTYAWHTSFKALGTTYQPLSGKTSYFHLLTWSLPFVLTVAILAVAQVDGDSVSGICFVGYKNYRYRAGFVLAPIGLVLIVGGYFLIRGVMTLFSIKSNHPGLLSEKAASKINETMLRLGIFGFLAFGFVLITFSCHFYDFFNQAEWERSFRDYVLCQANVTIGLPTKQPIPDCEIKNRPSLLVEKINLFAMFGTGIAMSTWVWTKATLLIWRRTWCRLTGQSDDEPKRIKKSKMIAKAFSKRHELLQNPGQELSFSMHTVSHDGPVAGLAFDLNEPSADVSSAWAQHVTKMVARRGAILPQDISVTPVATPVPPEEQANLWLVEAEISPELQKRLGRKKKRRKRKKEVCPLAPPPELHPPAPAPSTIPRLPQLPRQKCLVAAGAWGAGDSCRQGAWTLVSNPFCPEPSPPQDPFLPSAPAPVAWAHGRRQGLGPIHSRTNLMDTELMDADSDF
T1 sequence (Q99835 28-787): as above

CS(=O)(=O)c1ccc(C(=O)Nc2ccc(Cl)c(-c3ccccn3)c2)c(Cl)c1 [Vismodegib, reference compound]
Ability to inhibit Hh signaling (Gli1 down-regulation) versus wild-type cells [1]: no activity | GI50 [2]: 0.78 ± 0.1 µM | GI50 (ASZ001 cells): 2.1 µM

CC(C)COC[C@@H](C)[C@H]1CC[C@H]2[C@@H](OC(=O)c3cc(O)cc(O)c3)CCC[C@]12C [Compound 3j]
Ability to inhibit Hh signaling (Gli1 down-regulation) versus wild-type cells [3]: modestly reduced | Ability to inhibit Hh signaling (Gli1 down-regulation) versus wild-type cells [1]: mostly abolished | SPR interaction with Smo (Smo protein): exhibited interactions with Smo | GI50 [2]: 6.7 ± 0.8 µM | fold induction at 5 µM [4]: 11.4 ± 1.3 | fold induction at 5 µM [5, 11]: 2.1 ± 0.3 | Ability to up-regulate Cyp24A1 versus wild-type cells [6]: significantly reduced | Displacement of BODIPY-Cyc from Smo (full-length human Smo): neither 3j nor 4i affected BODIPY-Cyc-Smo binding interactions | IC50 [7, 12]: 3.6 ± 0.5 µM | GI50 (ASZ001 cells): 13.4 ± 1.4 µM | VDR Binding (recombinant VDR): >100 µM | Ability to up-regulate Cyp24A1 versus wild-type cells [8]: significantly reduced | mrna remaining at 5 µM [9]: 2.4 ± 0.4% | IC50 [9]: 1800 ± 300 nM | Change of IC50 value in combination with vismodegib (Hh signaling pathway): did not change the IC50 value | IC50 [10, 13]: 5500 ± 700 nM

CC1=C2C[C@H]3[C@@H](CC=C4C[C@@H](O)CC[C@@]43C)[C@@H]2CC[C@]12O[C@@H]1C[C@H](C)CN[C@H]1[C@H]2C [Cyclopamine, reference compound]
Displacement of BODIPY-Cyc from Smo (full-length human Smo): displaced BODIPY-Cyc in a concentration-dependent manner | Displacement of BODIPY-Cyc from Smo (full-length human Smo; listed as Cyc): displaced BODIPY-Cyc in a dose-dependent manner

C[C@H](COCC(C)(C)O)[C@H]1CC[C@H]2[C@@H](OC(=O)c3cc(O)cc(O)c3)CCC[C@]12C [Compound 4i]
Ability to inhibit Hh signaling (Gli1 down-regulation) versus wild-type cells [3]: modestly reduced | Ability to inhibit Hh signaling (Gli1 down-regulation) versus wild-type cells [1]: mostly abolished | SPR interaction with Smo (Smo protein): exhibited interactions with Smo | GI50 [2]: 2.2 ± 0.3 µM | fold induction at 5 µM [4]: 129 ± 16.8 | fold induction at 5 µM [5, 11]: 87.4 ± 10.6 | Ability to up-regulate Cyp24A1 versus wild-type cells [6]: significantly reduced | Displacement of BODIPY-Cyc from Smo (full-length human Smo): neither 3j nor 4i affected BODIPY-Cyc-Smo binding interactions | IC50 [7, 12]: 1.9 ± 0.3 µM | GI50 (ASZ001 cells): 5.8 ± 0.8 µM | VDR Binding (recombinant VDR): >100 µM | Ability to up-regulate Cyp24A1 versus wild-type cells [8]: significantly reduced | mrna remaining at 5 µM [9]: 1.7 ± 0.3% | IC50 [9]: 1100 ± 100 nM | Change of IC50 value in combination with vismodegib (Hh signaling pathway): did not change the IC50 value | IC50 [10, 13]: 1800 ± 300 nM

C=C1CC[C@H](O)C/C1=C/C=C1\CCC[C@]2(C)[C@@H]([C@H](C)CCCC(C)C)CC[C@@H]12 [VD3, Vitamin D3]
GI50 [2]: 6.4 ± 0.7 µM | fold induction at 5 µM [4]: 8350 ± 102 | fold induction at 5 µM ([5]; ASZ001, 24 h): 821 ± 26.3 | IC50 ([7]; C3H 10T1/2, read-out: Ptch IC50): 3.3 ± 0.4 µM | GI50 (ASZ001 cells): 15.6 ± 1.7 µM | VDR Binding (recombinant VDR): >100 µM | mrna remaining at 5 µM [9]: 32.5 ± 0.6% | IC50 [9]: 4200 ± 400 nM | IC50 ([10]; ASZ001, read-out: Gli1 IC50): 2100 ± 200 nM
